Measured values as given in patent publication US20220235255A1, “FLUORINE SUBSTITUTED UNSYMMETRICAL ETHERS, AND COMPOSITIONS, METHODS AND USES INCLUDING SAME” (HONEYWELL INTERNATIONAL INC., priority 2021, published 2022).

What was measured:
Assay type in all cases: physicochemical
[1] = Dielectric constant, ASTM D150-11, room temperature, 20 GHz
Description: Dielectric Constant means the dielectric constant as measured in accordance with ASTM D150-11 at room temperature at 20 giga hertz (GHz).

[2] = Flash point / non-flammability, ASTM D3828-16a, NFPA 30
Description: Flash Point refers the lowest temperature at which vapors of the liquid will keep burning after the ignition source is removed as determined in accordance with ASTM D3828-16a.
The flash point of a thermal management composition or fluid refers the lowest temperature at which vapours of the composition will keep burning after the ignition source is removed as determined in accordance with ASTM D3828-16a.

Normal boiling point = assay: Normal boiling point

In the case of FC(F)(F)COC(C(F)(F)F)C(F)(F)F [Compound 1A, propane, 2-(2′,2′,2′-trifluorethoxy)-(1,1,1,3,3,3-hexafluoro)], the dielectric constant [1] is reported as “below 4”, the flash point [2] is reported as “no flash point” and the normal boiling point (Normal boiling point) is reported as “about 69 °C”.
